Reference: patent US8952024B2, “Herbicidal pyrimidone derivatives” (E I du Pont de Nemours and Company, priority 2009, dated 2015)

Columns and labels:
Assay type in all cases: in vivo
[1] = system: pigweed (Amaranthus retroflexus); test: Test B pre-/postemergence plant response; settings: for Pigweed plant response rating (0 to 100 scale): 62 g ai/ha, postemergence, 0 is no effect, 100 is complete control; for Plant response rating, Pigweed: Postemergence
Method in brief: (§1)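 Test compounds, formulated in a non-phytotoxic solvent mixture with surfactant, are applied to the soil surface (loam and sand blend) right after seeding, or sprayed over plants at the 1- to 4-leaf stage grown in peat moss/vermiculite medium. After 13 to 15 days under glasshouse conditions, each species is scored visually from 0 (no effect) to 100 (complete control) against controls.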

[2] = system: wheat (Triticum aestivum); test: Test B pre-/postemergence plant response; settings: for Wheat plant response rating (0 to 100 scale): 62 g ai/ha, postemergence, 0 is no effect, 100 is complete control; for Plant response rating, Wheat: Postemergence
Method in brief: as §1

[3] = system: woolly cupgrass (Eriochloa villosa); test: Test B pre-/postemergence plant response; settings: for Cupgrass, Woolly plant response rating (0 to 100 scale): 62 g ai/ha, postemergence, 0 is no effect, 100 is complete control; for Plant response rating, Cupgrass, Woolly: Postemergence
Method in brief: as §1

[4] = system: Surinam grass (Brachiaria decumbens); test: Test B pre-/postemergence plant response; settings: for Surinam Grass plant response rating (0 to 100 scale): 62 g ai/ha, postemergence, 0 is no effect, 100 is complete control; for Plant response rating, Surinam Grass: Postemergence
Method in brief: as §1

[5] = system: lambsquarters (Chenopodium album); test: Test B pre-/postemergence plant response; settings: for Lambsquarters plant response rating (0 to 100 scale): 62 g ai/ha, postemergence, 0 is no effect, 100 is complete control; for Plant response rating, Lambsquarters: Postemergence
Method in brief: as §1

[6] = system: downy bromegrass (Bromus tectorum); test: Test B pre-/postemergence plant response; settings: for Bromegrass, Downy plant response rating (0 to 100 scale): 62 g ai/ha, postemergence, 0 is no effect, 100 is complete control; for Plant response rating, Bromegrass, Downy: Postemergence
Method in brief: as §1

[7] = system: yellow nutsedge (Cyperus esculentus); test: Test B pre-/postemergence plant response; settings: for Nutsedge, Yellow plant response rating (0 to 100 scale): 62 g ai/ha, postemergence, 0 is no effect, 100 is complete control; for Plant response rating, Nutsedge, Yellow: Postemergence
Method in brief: as §1

[8] = system: bermudagrass (Cynodon dactylon); test: Test B pre-/postemergence plant response; settings: for Bermudagrass plant response rating (0 to 100 scale): 62 g ai/ha, postemergence, 0 is no effect, 100 is complete control; for Plant response rating, Bermudagrass: Postemergence
Method in brief: as §1

[9] = system: ducksalad (Heteranthera limosa); test: Test B flooded paddy test; settings: for Plant response rating, Flood, Ducksalad: 250 g ai/ha, flooded paddy test, visual rating on 0 to 100 scale (0 no effect, 100 complete control) after 13 to 15 days; for Plant response rating, Ducksalad: Flood (flooded paddy test), 13 to 15 days; for Ducksalad plant response rating: Flood, 31 g ai/ha, scale 0 to 100 (0 no effect, 100 complete control)
Method in brief: (§2)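 Seedlings reaching 2 leaves are flooded 3 cm deep; test material is delivered to that water, which stays at the same depth. Plants remain in a greenhouse 13–15 days and are then scored by eye versus controls from 0 to 100.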

[10] = system: barnyardgrass (Echinochloa crus-galli); test: Test B flooded paddy test; settings: for Plant response rating, Flood, Barnyardgrass: 250 g ai/ha, flooded paddy test, visual rating on 0 to 100 scale (0 no effect, 100 complete control) after 13 to 15 days; for Plant response rating, Barnyardgrass: Flood (flooded paddy test), 13 to 15 days; for Barnyardgrass plant response rating: Flood, 31 g ai/ha, scale 0 to 100 (0 no effect, 100 complete control)
Method in brief: as §2

[11] = system: umbrella sedge (Cyperus difformis); test: Test B flooded paddy test; settings: for Plant response rating, Flood, Sedge, Umbrella: 250 g ai/ha, flooded paddy test, visual rating on 0 to 100 scale (0 no effect, 100 complete control) after 13 to 15 days; for Plant response rating, Sedge, Umbrella: Flood (flooded paddy test), 13 to 15 days; for Sedge, Umbrella plant response rating: Flood, 31 g ai/ha, scale 0 to 100 (0 no effect, 100 complete control)
Method in brief: as §2

rice (Oryza sativa) = test: Test B flooded paddy test; settings: for Plant response rating, Flood, Rice: 250 g ai/ha, flooded paddy test, visual rating on 0 to 100 scale (0 no effect, 100 complete control) after 13 to 15 days; for Plant response rating, Rice: Flood (flooded paddy test), 13 to 15 days; for Rice plant response rating: Flood, 31 g ai/ha, scale 0 to 100 (0 no effect, 100 complete control)
Method in brief: as §2

[12] = 31 g ai/ha, 0 to 100 scale (0 no effect, 100 complete control)
[13] = 125 g ai/ha, scale 0 to 100 (0 no effect, 100 complete control)
[14] = 250 g ai/ha, scale 0 to 100 (0 no effect, 100 complete control), 13 to 15 days
[15] = 62 g ai/ha, scale of 0 to 100 where 0 is no effect and 100 is complete control
[16] = 125 g ai/ha, scale 0 to 100, 0 is no effect, 100 is complete control

COCCn1c(-c2cccc(Cl)c2)ncc(C(=O)C2=C(O)CCCC2=O)c1=O [Compound 147]
Pigweed plant response rating (0 to 100 scale) ([1]; 13 to 15 days): 95 | Plant response rating, Pigweed [1, 12]: 85 | Plant response rating, Pigweed [1, 13]: 100 | Plant response rating, Pigweed [1, 14]: 100 | Wheat plant response rating (0 to 100 scale) ([2]; 13 to 15 days): 5 | Plant response rating, Wheat [2, 12]: 0 | Plant response rating, Wheat [2, 13]: 5 | Plant response rating, Wheat [2, 14]: 10 | Cupgrass, Woolly plant response rating (0 to 100 scale) ([3]; 13 to 15 days): 70 | Plant response rating, Cupgrass, Woolly [3, 12]: 65 | Plant response rating, Cupgrass, Woolly [3, 13]: 80 | Plant response rating, Cupgrass, Woolly [3, 14]: 80 | Surinam Grass plant response rating (0 to 100 scale) ([4]; 13 to 15 days): 65 | Plant response rating, Surinam Grass [4, 12]: 50 | Plant response rating, Surinam Grass [4, 13]: 75 | Plant response rating, Surinam Grass [4, 14]: 75 | Lambsquarters plant response rating (0 to 100 scale) ([5]; 13 to 15 days): 95 | Plant response rating, Lambsquarters [5, 12]: 85 | Plant response rating, Lambsquarters [5, 13]: 98 | Plant response rating, Lambsquarters [5, 14]: 100 | Bromegrass, Downy plant response rating (0 to 100 scale) ([6]; 13 to 15 days): 5 | Plant response rating, Bromegrass, Downy [6, 12]: 0 | Plant response rating, Bromegrass, Downy [6, 13]: 5 | Plant response rating, Bromegrass, Downy [6, 14]: 10 | Nutsedge, Yellow plant response rating (0 to 100 scale) ([7]; 13 to 15 days): 60 | Plant response rating, Nutsedge, Yellow [7, 12]: 50 | Plant response rating, Nutsedge, Yellow [7, 13]: 70 | Plant response rating, Nutsedge, Yellow [7, 14]: 75 | Bermudagrass plant response rating (0 to 100 scale) ([8]; 13 to 15 days): 90 | Plant response rating, Bermudagrass [8, 12]: 75 | Plant response rating, Bermudagrass [8, 13]: 95 | Plant response rating, Bermudagrass [8, 14]: 98 | Plant response rating, Flood, Ducksalad [9]: 100 | Plant response rating, Ducksalad [9, 15]: 60 | Plant response rating, Ducksalad [9, 16]: 80 | Ducksalad plant response rating [9]: 60 | Plant response rating, Flood, Barnyardgrass [10]: 75 | Plant response rating, Barnyardgrass [10, 15]: 10 | Plant response rating, Barnyardgrass [10, 16]: 45 | Barnyardgrass plant response rating [10]: 0 | Plant response rating, Flood, Sedge, Umbrella [11]: 80 | Plant response rating, Sedge, Umbrella [11, 15]: 40 | Plant response rating, Sedge, Umbrella [11, 16]: 40 | Sedge, Umbrella plant response rating [11]: 0 | Plant response rating, Flood, Rice (rice (Oryza sativa)): 15 | Plant response rating, Rice (rice (Oryza sativa); [15]): 0 | Plant response rating, Rice (rice (Oryza sativa); [16]): 10 | Rice plant response rating (rice (Oryza sativa)): 0

CCCn1c(-c2cc(F)cc(F)c2)ncc(C(=O)C2=C(O)CCCC2=O)c1=O [Compound 152]
Pigweed plant response rating (0 to 100 scale) ([1]; 13 to 15 days): 98 | Plant response rating, Pigweed [1, 12]: 95 | Plant response rating, Pigweed [1, 13]: 100 | Plant response rating, Pigweed [1, 14]: 100 | Wheat plant response rating (0 to 100 scale) ([2]; 13 to 15 days): 50 | Plant response rating, Wheat [2, 12]: 35 | Plant response rating, Wheat [2, 13]: 85 | Plant response rating, Wheat [2, 14]: 90 | Cupgrass, Woolly plant response rating (0 to 100 scale) ([3]; 13 to 15 days): 98 | Plant response rating, Cupgrass, Woolly [3, 12]: 95 | Plant response rating, Cupgrass, Woolly [3, 13]: 98 | Plant response rating, Cupgrass, Woolly [3, 14]: 100 | Surinam Grass plant response rating (0 to 100 scale) ([4]; 13 to 15 days): 85 | Plant response rating, Surinam Grass [4, 12]: 75 | Plant response rating, Surinam Grass [4, 13]: 90 | Plant response rating, Surinam Grass [4, 14]: 95 | Lambsquarters plant response rating (0 to 100 scale) ([5]; 13 to 15 days): 95 | Plant response rating, Lambsquarters [5, 12]: 85 | Plant response rating, Lambsquarters [5, 13]: 98 | Plant response rating, Lambsquarters [5, 14]: 100 | Bromegrass, Downy plant response rating (0 to 100 scale) ([6]; 13 to 15 days): 55 | Plant response rating, Bromegrass, Downy [6, 12]: 30 | Plant response rating, Bromegrass, Downy [6, 13]: 60 | Plant response rating, Bromegrass, Downy [6, 14]: 85 | Nutsedge, Yellow plant response rating (0 to 100 scale) ([7]; 13 to 15 days): 75 | Plant response rating, Nutsedge, Yellow [7, 12]: 65 | Plant response rating, Nutsedge, Yellow [7, 13]: 80 | Plant response rating, Nutsedge, Yellow [7, 14]: 80 | Bermudagrass plant response rating (0 to 100 scale) ([8]; 13 to 15 days): 95 | Plant response rating, Bermudagrass [8, 12]: 95 | Plant response rating, Bermudagrass [8, 13]: 98 | Plant response rating, Bermudagrass [8, 14]: 98 | Plant response rating, Flood, Ducksalad [9]: 100 | Plant response rating, Ducksalad [9, 15]: 90 | Plant response rating, Ducksalad [9, 16]: 100 | Ducksalad plant response rating [9]: 0 | Plant response rating, Flood, Barnyardgrass [10]: 75 | Plant response rating, Barnyardgrass [10, 15]: 25 | Plant response rating, Barnyardgrass [10, 16]: 50 | Barnyardgrass plant response rating [10]: 15 | Plant response rating, Flood, Sedge, Umbrella [11]: 100 | Plant response rating, Sedge, Umbrella [11, 15]: 0 | Plant response rating, Sedge, Umbrella [11, 16]: 85 | Sedge, Umbrella plant response rating [11]: 0 | Plant response rating, Flood, Rice (rice (Oryza sativa)): 60 | Plant response rating, Rice (rice (Oryza sativa); [15]): 20 | Plant response rating, Rice (rice (Oryza sativa); [16]): 30 | Rice plant response rating (rice (Oryza sativa)): 20
